Assay results: ChEMBL document CHEMBL5365528, “Expanding the Role of Boron in New Drug Chemotypes: Properties, Chemistry, Pharmaceutical Potential of Hemiboronic Naphthoids” (J Med Chem, 2023)
≈ marks a conversion by molar mass, not a printed value. Calls of active or inactive are those of the source. The rule behind the calls is not given here.

How the values were obtained:
[1] = molecular target: 3',5'-cyclic-AMP phosphodiesterase 4B (Homo sapiens) (UniProt Q07343); assay: Inhibition of N-terminal GST-tagged full length human PDE4B1 (1 to 736 residues) expressed in baculovirus-infected Sf9 cells using FAM-cAMP as substrate at 2 uM measured after 60 mins by fluorescence based analysis
Chain of 3',5'-cyclic-AMP phosphodiesterase 4B (Homo sapiens) (Q07343 whole entry, the tested form may be a part): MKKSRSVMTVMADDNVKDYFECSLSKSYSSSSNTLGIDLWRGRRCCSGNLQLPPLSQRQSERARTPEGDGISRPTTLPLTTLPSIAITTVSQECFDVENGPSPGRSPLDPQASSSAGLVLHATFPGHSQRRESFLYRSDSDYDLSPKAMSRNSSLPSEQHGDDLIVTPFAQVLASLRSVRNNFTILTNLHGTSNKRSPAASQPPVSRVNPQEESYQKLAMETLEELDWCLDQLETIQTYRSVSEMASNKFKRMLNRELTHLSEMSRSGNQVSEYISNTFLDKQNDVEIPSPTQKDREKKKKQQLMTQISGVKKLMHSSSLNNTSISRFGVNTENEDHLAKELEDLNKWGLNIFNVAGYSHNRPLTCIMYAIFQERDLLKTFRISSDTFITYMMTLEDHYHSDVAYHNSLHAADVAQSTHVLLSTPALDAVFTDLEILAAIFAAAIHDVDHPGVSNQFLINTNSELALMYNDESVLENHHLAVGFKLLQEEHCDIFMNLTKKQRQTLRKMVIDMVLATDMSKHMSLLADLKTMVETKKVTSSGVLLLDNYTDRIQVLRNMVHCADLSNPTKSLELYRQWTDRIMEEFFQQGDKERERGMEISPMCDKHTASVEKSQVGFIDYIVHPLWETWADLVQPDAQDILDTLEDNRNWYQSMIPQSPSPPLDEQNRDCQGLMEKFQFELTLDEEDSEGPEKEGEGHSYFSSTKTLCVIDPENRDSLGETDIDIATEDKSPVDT

[2] = tested on: Candida albicans; assay: Antifungal activity against Candida albicans UAMH 3489 assessed as inhibition of fungal growth incubated for 24 hrs; format: functional
[3] = tested on: Staphylococcus aureus; assay: Antibacterial activity against Staphylococcus aureus ATCC 43300 assessed as inhibition of bacterial growth incubated for 18 hrs; format: functional
[4] = Permeability of the compound across apical to basolateral membrane in human Caco-2 cells at 10 uM measured for 90 mins by LC-MS/MS analysis; format: ADME, cell-based
[5] = Efflux ratio of permeability across basolateral to apical membrane over apical to basolateral membrane in human Caco-2 cells at 10 uM measured for 90 mins by LC-MS/MS analysis; format: ADME, cell-based
[6] = Permeability of the compound across basolateral to apical membrane in human Caco-2 cells at 10 uM measured for 90 mins by LC-MS/MS analysis; format: ADME, cell-based
[7] = Protein binding in human plasma at 1 uM measured after 6 hrs by LC-MS/MS analysis; format: ADME, cell-free; conditions: read-out: PPB (converted)
[8] = Kinetic solubility of the compound in PBS buffer at pH 7.4 measured after 2 hrs by LC-MS/MS analysis; format: physicochemical; conditions: read-out: Kinetic_solubility
[9] = Dissociation constant, pKa of the compound in aqueous phosphate buffer with 3 to 4% DMSO; format: physicochemical
[10] = tested on: Candida albicans; assay: Antifungal activity against Candida albicans UAMH 3489 assessed as inhibition of fungal growth at 100 uM incubated for 24 hrs; format: functional, organism-based
[11] = molecular target: 3',5'-cyclic-AMP phosphodiesterase 4B (Homo sapiens) (UniProt Q07343); assay: Inhibition of N-terminal GST-tagged full length human PDE4B1 (1 to 736 residues) expressed in baculovirus-infected Sf9 cells using FAM-cAMP as substrate at 0.1 uM measured after 60 mins by fluorescence based analysis
[12] = tested on: Staphylococcus aureus; assay: Antibacterial activity against Staphylococcus aureus ATCC 43300 assessed as inhibition of bacterial growth at 100 uM incubated for 18 hrs; format: functional, organism-based
[13] = Dissociation constant, pKa of the compound in 1:1 CH3CN/aqueous phosphate buffer; format: physicochemical
[14] = Lipophilicity, log P of the compound in octanol/water by RP-HPLC analysis; format: physicochemical
[15] = Clearance in human hepatocytes at 1 uM measured per million cells by LC-MS/MS analysis; format: ADME, cell-based, Hepatocyte; conditions: read-out: CLH
[16] = Half life in human hepatocytes at 1 uM by LC-MS/MS analysis; format: ADME, cell-based, Hepatocyte
[17] = Stability of the compound in d6-DMSO with drop of D2O and measured for >1 month at room temperature by NMR spectroscopy; format: physicochemical; conditions: time > 1 months, read-out: Stability
[18] = Hepatic blood flow in human; format: ADME
[19] = Lipophilicity, log D of the compound in Octanol/PBS buffer at pH 7.4 measured after 1 hr by LC-MS/MS analysis; format: physicochemical
[20] = molecular target: T1, Poly [ADP-ribose] polymerase 1 (Homo sapiens, UniProt P09874); assay: Inhibition of N-terminal GST-tagged full length human PARP1 (2 to 1014 residues) expressed in baculovirus-infected Sf9 cells using histone as substrate at 1000 nM incubated for 60 mins in presence of activated DNA, NAD+, NAD+-biotin by luminescence based analysis
T1 sequence (P09874 whole entry, the tested form may be a part): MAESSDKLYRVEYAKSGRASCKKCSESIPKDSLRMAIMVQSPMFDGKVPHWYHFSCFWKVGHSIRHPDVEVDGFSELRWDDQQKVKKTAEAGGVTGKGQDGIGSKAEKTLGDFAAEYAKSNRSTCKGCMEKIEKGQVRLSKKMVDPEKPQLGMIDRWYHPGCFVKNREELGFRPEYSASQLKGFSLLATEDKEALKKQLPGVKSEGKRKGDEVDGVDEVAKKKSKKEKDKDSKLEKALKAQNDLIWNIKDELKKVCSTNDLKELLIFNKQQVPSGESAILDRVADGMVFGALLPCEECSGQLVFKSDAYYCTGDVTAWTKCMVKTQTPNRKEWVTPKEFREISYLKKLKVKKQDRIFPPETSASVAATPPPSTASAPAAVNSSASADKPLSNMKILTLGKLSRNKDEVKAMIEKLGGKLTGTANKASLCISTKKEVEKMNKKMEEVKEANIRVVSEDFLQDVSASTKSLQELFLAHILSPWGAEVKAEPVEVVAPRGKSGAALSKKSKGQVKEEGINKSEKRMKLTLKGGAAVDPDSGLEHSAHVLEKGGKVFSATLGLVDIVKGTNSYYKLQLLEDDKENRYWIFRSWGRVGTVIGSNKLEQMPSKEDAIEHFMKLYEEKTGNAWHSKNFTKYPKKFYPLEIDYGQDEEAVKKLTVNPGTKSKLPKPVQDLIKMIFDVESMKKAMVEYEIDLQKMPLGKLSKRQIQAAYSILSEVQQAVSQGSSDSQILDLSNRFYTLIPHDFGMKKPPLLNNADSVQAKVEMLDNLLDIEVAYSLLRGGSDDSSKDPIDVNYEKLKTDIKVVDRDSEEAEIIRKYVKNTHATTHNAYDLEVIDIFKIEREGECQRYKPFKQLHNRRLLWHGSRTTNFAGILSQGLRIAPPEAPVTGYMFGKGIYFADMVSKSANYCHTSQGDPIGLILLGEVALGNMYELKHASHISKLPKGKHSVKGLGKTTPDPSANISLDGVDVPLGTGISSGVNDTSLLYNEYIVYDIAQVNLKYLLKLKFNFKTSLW

[21] = molecular target: T2, Poly [ADP-ribose] polymerase 2 (Homo sapiens, UniProt Q9UGN5); assay: Inhibition of N-terminal GST-tagged human PARP2 (2 to 583 residues) expressed in baculovirus-infected Sf9 cells using histone as substrate at 1000 nM incubated for 60 mins in presence of activated DNA, NAD+, NAD+-biotin by luminescence based analysis
T2 sequence (Q9UGN5 whole entry, the tested form may be a part): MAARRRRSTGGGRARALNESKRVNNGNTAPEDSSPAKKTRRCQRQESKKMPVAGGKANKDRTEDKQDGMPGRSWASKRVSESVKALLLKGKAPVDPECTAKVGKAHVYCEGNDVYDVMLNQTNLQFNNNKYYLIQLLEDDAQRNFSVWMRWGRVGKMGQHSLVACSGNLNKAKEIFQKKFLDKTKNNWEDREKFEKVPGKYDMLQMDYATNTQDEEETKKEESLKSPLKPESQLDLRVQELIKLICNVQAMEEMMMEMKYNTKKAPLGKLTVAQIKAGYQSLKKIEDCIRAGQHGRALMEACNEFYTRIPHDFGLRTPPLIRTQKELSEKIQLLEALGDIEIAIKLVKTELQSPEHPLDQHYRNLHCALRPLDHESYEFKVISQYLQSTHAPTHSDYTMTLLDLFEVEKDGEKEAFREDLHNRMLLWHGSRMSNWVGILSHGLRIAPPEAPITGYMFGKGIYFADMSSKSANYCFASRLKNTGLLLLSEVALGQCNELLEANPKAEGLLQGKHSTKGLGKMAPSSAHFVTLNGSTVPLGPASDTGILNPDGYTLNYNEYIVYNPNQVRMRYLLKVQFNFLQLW

[22] = molecular target: T2, Poly [ADP-ribose] polymerase 2; assay: Inhibition of N-terminal GST-tagged human PARP2 (2 to 583 residues) expressed in baculovirus-infected Sf9 cells using histone as substrate incubated for 60 mins in presence of activated DNA, NAD+, NAD+-biotin by luminescence based analysis
[23] = molecular target: T1, Poly [ADP-ribose] polymerase 1; assay: Inhibition of N-terminal GST-tagged full length human PARP1 (2 to 1014 residues) expressed in baculovirus-infected Sf9 cells using histone as substrate incubated for 60 mins in presence of activated DNA, NAD+, NAD+-biotin by luminescence based analysis

N#Cc1ccc(Oc2ccc3c(c2)C(c2ccccc2)=NOB3O)cc1
inhibition [1]: 15%

OB1ON=Cc2cc(-c3ccc(C(F)(F)F)cc3)ccc21
MIC [2]: 0.125 µM (≈ 0.0364 µg/mL)

OB1ON=C(c2ccccc2)c2cc(F)ccc21
MIC [2]: 16 µM (≈ 3.86 µg/mL)
MIC [3]: 64 µM (≈ 15.4 µg/mL)

COc1ccc2c(c1)C(c1ccccc1)=NOB2O
MIC [3]: 8 µM (≈ 2.02 µg/mL)

C[C@H]1O[C@@H](O[C@H]2[C@@H](O)C[C@H](O[C@H]3[C@@H](O)C[C@H](O[C@H]4CC[C@@]5(C)[C@H](CC[C@@H]6[C@@H]5C[C@@H](O)[C@]5(C)[C@@H](C7=CC(=O)OC7)CC[C@]65O)C4)O[C@@H]3C)O[C@@H]2C)C[C@H](O)[C@@H]1O [DIGOXIN]
Papp A→B at 1.5 h, 10 µM [4]: 1 ×10⁻⁶ cm/s
efflux ratio at 1.5 h, 10 µM [5]: 13.4
Papp B→A at 1.5 h, 10 µM [6]: 13.1 ×10⁻⁶ cm/s

OB1OCc2cc(F)ccc21 [TAVABOROLE]
fraction unbound at 6 h, 1 µM [7]: 0.34
MIC [2]: 1 µM (≈ 0.152 µg/mL)
solubility kinetic at 2 h [8]: > 658 µM
pKa [9]: 7.4
MIC [3]: 128 µM (≈ 19.4 µg/mL)

OB1NN=Cc2cc(-c3ccc(C(F)(F)F)cc3)ccc21
Activity [10]: inactive

N#Cc1ccc(Oc2ccc3c(c2)C=NOB3O)cc1
Activity [10]: inactive
inhibition [1]: 23%

COc1ccc(C2=NOB(O)c3ccccc32)cc1
MIC [2]: 32 µM (≈ 8.1 µg/mL)
MIC [3]: 64 µM (≈ 16.2 µg/mL)

N#Cc1ccc(Oc2ccc3c(c2)COB3O)cc1
inhibition [11]: 11%

CCCC(=O)Nc1ccc(OCC(O)CNC(C)C)c(C(C)=O)c1 (stereo unspecified) [ACEBUTOLOL]
fraction unbound at 6 h, 1 µM [7]: 0.707

OB1ON=Cc2cc(-c3ccoc3)ccc21
MIC [2]: 2 µM (≈ 0.426 µg/mL)

COC(=O)C1=C(C)NC(C)=C(C(=O)OCCN(C)Cc2ccccc2)C1c1cccc([N+](=O)[O-])c1 (stereo unspecified) [NICARDIPINE]
solubility kinetic at 2 h [8]: 4.7 µM (≈ 2.25 µg/mL)

COc1ccc(C2=NOB(O)c3ccccc32)cc1Br
MIC [3]: 16 µM (≈ 5.31 µg/mL)

CC(C)NCC(O)COc1cccc2ccccc12 (stereo unspecified) [PROPRANOLOL]
Papp A→B at 1.5 h, 10 µM [4]: 3.4 ×10⁻⁶ cm/s

OB1NN=C(c2ccccc2)c2cc(F)ccc21
Activity [12]: inactive
MIC [2]: > 128 µM

OB1OCc2ccccc21 [BENZOXABOROLE]
pKa [9]: 7.4
pKa [13]: 9.2

OB1NN=C(c2ccccc2)c2ccccc21
fraction unbound at 6 h, 1 µM [7]: 0.0141
logP [14]: 3.72
hepatocyte CLint at 1 µM [15]: 12.8 µL/min/1e6 cells
Papp A→B at 1.5 h, 10 µM [4]: 26.9 ×10⁻⁶ cm/s
half-life at 1 µM [16]: 1.81 h
solubility kinetic at 2 h [8]: 189 µM (≈ 42.1 µg/mL)
efflux ratio at 1.5 h, 10 µM [5]: 0.82
remaining at 730 h [17]: > 99%
Papp B→A at 1.5 h, 10 µM [6]: 22.1 ×10⁻⁶ cm/s
pKa [9]: > 14
percent of hepatic blood flow [18]: 65.2%
logD at 1 h [19]: 3.44
pKa [13]: > 13

OC(Cn1cncn1)(Cn1cncn1)c1ccc(F)cc1F [FLUCONAZOLE]
MIC [2]: 4 µM (≈ 1.23 µg/mL)

C[C@]12CC[C@H]3[C@@H](CCC4=CC(=O)CC[C@@]43C)[C@@H]1CC[C@@H]2O [TESTOSTERONE]
hepatocyte CLint at 1 µM [15]: 60.2 µL/min/1e6 cells
half-life at 1 µM [16]: 0.417 h
percent of hepatic blood flow [18]: 89.1%

O=C(Nc1ccc2c(c1)B(O)NN=C2)c1ccc(F)cc1C(F)(F)F
Activity [12]: inactive

OB1ON=Cc2cc(F)ccc21
Activity [12]: inactive
MIC [2]: 8 µM (≈ 1.32 µg/mL)

O=C(c1cc(CC2=NOB(O)c3ccccc32)ccc1F)N1CCN(C(=O)C2CC2)CC1
inhibition [20]: inactive
inhibition [21]: 18%
IC50 [22]: > 1 µM
IC50 [23]: > 1 µM

CCCSc1ccc2nc(NC(=O)OC)[nH]c2c1 [ALBENDAZOLE]
logD at 1 h [19]: 3.57

O=C(c1cc(CC2=NNB(O)c3ccccc32)ccc1F)N1CCN(C(=O)C2CC2)CC1
IC50 [22]: 0.12 µM
IC50 [23]: ~0.54 µM

OB1ON=Cc2cc(-c3ccc(F)cc3)ccc21
MIC [2]: 4 µM (≈ 0.964 µg/mL)

OB1NN=Cc2ccccc21
fraction unbound at 6 h, 1 µM [7]: 0.082
logP [14]: 1.94
hepatocyte CLint at 1 µM [15]: < 3.9 µL/min/1e6 cells
Activity [10]: inactive
Papp A→B at 1.5 h, 10 µM [4]: 30.1 ×10⁻⁶ cm/s
half-life at 1 µM [16]: > 6 h
solubility kinetic at 2 h [8]: ≥ 439 µM
efflux ratio at 1.5 h, 10 µM [5]: 1
remaining at 730 h [17]: > 99%
Papp B→A at 1.5 h, 10 µM [6]: 30.6 ×10⁻⁶ cm/s
pKa [9]: > 14
percent of hepatic blood flow [18]: < 36.1%
logD at 1 h [19]: 2.03
pKa [13]: > 14

OB1ON=Cc2ccccc21
fraction unbound at 6 h, 1 µM [7]: 0.71
logP [14]: 1.23
hepatocyte CLint at 1 µM [15]: 29.7 µL/min/1e6 cells
MIC [2]: 16 µM (≈ 2.35 µg/mL)
Papp A→B at 1.5 h, 10 µM [4]: 33 ×10⁻⁶ cm/s
half-life at 1 µM [16]: 0.785 h
solubility kinetic at 2 h [8]: ≥ 386 µM
efflux ratio at 1.5 h, 10 µM [5]: 0.13
remaining at 730 h [17]: > 99%
Papp B→A at 1.5 h, 10 µM [6]: 4.4 ×10⁻⁶ cm/s
pKa [9]: 5.5
percent of hepatic blood flow [18]: 81.2%
logD at 1 h [19]: ~0.65
pKa [13]: 7.1

O=C(Nc1ccc2c(c1)B(O)NN=C2c1ccccc1)c1ccc(F)cc1C(F)(F)F
MIC [3]: 64 µM (≈ 27.3 µg/mL)

OB1ON=Cc2cc(-c3ccccc3)ccc21
MIC [2]: 8 µM (≈ 1.78 µg/mL)

OB1ON=Cc2cc(-c3ccsc3)ccc21
MIC [2]: 2 µM (≈ 0.458 µg/mL)

CN(C)CCCN1c2ccccc2CCc2ccccc21 [IMIPRAMINE]
solubility kinetic at 2 h [8]: 457 µM (≈ 128 µg/mL)

CN[C@H](CC(C)C)C(=O)N[C@H]1C(=O)N[C@@H](CC(N)=O)C(=O)N[C@H]2C(=O)N[C@H]3C(=O)N[C@H](C(=O)N[C@H](C(=O)O)c4cc(O)cc(O)c4-c4cc3ccc4O)[C@H](O)c3ccc(c(Cl)c3)Oc3cc2cc(c3O[C@@H]2O[C@H](CO)[C@@H](O)[C@H](O)[C@H]2O[C@H]2C[C@](C)(N)[C@H](O)[C@H](C)O2)Oc2ccc(cc2Cl)[C@H]1O [VANCOMYCIN]
MIC [3]: 4 µM (≈ 5.8 µg/mL)

OB1NN=Cc2cc(F)ccc21
MIC [2]: > 128 µM

N#Cc1ccc(Oc2ccc3c(c2)C=NNB3O)cc1
inhibition [1]: 5%

OB1ON=C(c2ccccc2)c2ccccc21
fraction unbound at 6 h, 1 µM [7]: 0.102
logP [14]: 2.6
hepatocyte CLint at 1 µM [15]: < 3.9 µL/min/1e6 cells
MIC [2]: 32 µM (≈ 7.14 µg/mL)
Papp A→B at 1.5 h, 10 µM [4]: 34.5 ×10⁻⁶ cm/s
half-life at 1 µM [16]: > 6 h
solubility kinetic at 2 h [8]: ≥ 403 µM
efflux ratio at 1.5 h, 10 µM [5]: 0.12
remaining at 730 h [17]: > 99%
Papp B→A at 1.5 h, 10 µM [6]: 4 ×10⁻⁶ cm/s
pKa [9]: ~5.5
percent of hepatic blood flow [18]: < 36.1%
logD at 1 h [19]: 0.71
pKa [13]: 7
MIC [3]: 128 µM (≈ 28.5 µg/mL)
